Marks after values point to notes of the source that are not given here.
Assays:
cellules MT4 = experiment: Cytotoxicity control on MT4 cells (uncontaminated AVF1 samples, diluted and ultracentrifuged); type: cell-based, humaines; details: non contaminé, dilué et centrifugé, inoculated at dilution 1/4, 10 days culture
Experimental: • Contrôles négatifs : • . Les cellules utilisées pour le titrage, non infectées (culture témoin). • . les trois concentrations de AVF1 utilisées dans l'étude, diluées en tampon NTE et ultracentrifugées. Ces échantillons (contrôles négatifs) ont été utilisés pour vérifier l'absence de toxicité due à des traces résiduelles de AVF1, sur les cellules MT4. • Contrôles positifs : • . Le VIH-1 dilué en milieu de culture à la dilution réalisée pour l'étude, immédiatement aliquoté et stocké à -80°C (contrôle positif). • . Le VIH-1 dilué en milieu de culture à la dilution réalisée pour l'étude, puis dilué en tampon NTE, ultracentrifugé, filtré sur un filtre de 0,45 µm, aliquoté, stocké à -80°C et titré ultérieurement (contrôle de centrifugation). • . Le VIH-1 dilué en milieu de culture à la dilution réalisée pour l'étude, laissé 10 minutes à température ambiante, puis dilué en tampon NTE, ultracentrifugé, filtré sur un filtre de 0,45 µm, aliquoté, stocké à -80°C et titré ultérieurement (contrôle expérimental).
Le contrôle de toxicité a été réalisé dans des conditions identiques à celles décrites pour la méthode de titrage, mais en inoculant les cellules MT4 avec les échantillons non contaminés par le VIH-1 et décrits précédemment (contrôle négatif).
Le critère de non toxicité du produit est établi a été établi en comparant l'aspect morphologique et la viabilité des cellules MT4 inoculées avec du milieu de culture (culture témoin) ou avec les échantillons non contaminés (contrôles négatifs) après 10 jours de culture.

[1] = tested on: NO-synthase inductible (iNOS); experiment: iNOS induction test: nitrites in RAW264.7 supernatants by Griess reaction after nitrate reduction; type: cell-based, murins
From the text: Cette hypothèse a été contrôlée en dosant les nitrites dans des surnageants de culture de macrophages murins de lignées activées en présence de AVF1. Les nitrites ont été dosés par la réaction de Griess après réduction de tous le nitrates grâce à la nitrate réductase de Pseudomonas oleoverans (Granger et al., J. Immunol., 1991, 146, 1294-1302). La spécificité de la réaction a été prouvée par l'emploi d'un inhibiteur spécifique de la synthèse du monoxyde d'azote, la N^G-monométhyl-L-arginine (L-NMMA).
Le test d'induction iNOS consiste à ensemencer les macrophages RAW264.7 dans des plaques à 24 puits à raison de 1 x 10^6 sous 1,6 ml. Après 24 heures de culture permettant d'obtenir un tapis cellulaire complet, AVF1, dilué de raison 10 dans des des doses ne donnant pas de toxicité cellulaire (de 10^-6 à 10^-8 %), est ajouté dans 100 µl par cupule soit sur des macrophages sans activateur, avec ou sans l'inhibiteur de iNOS (action directe du produit sur les macrophages) soit en présence des inducteurs, avec ou sans inhibiteur (action du produit sur des macrophages activés).
Après 24 heures de culture, les surnageants sont prélevés, centrifugés 10 minutes à 100 g à température ambiantes pour éliminer les éventuels débris cellulaires puis utilisés pour le dosage des nitrites.
Deux volumes des surnageants clarifiés sont réduits en présence d'un volume d'une suspension de Pseudomonas oleovorans à 100 mg/ml et un volume de D-MEM sans rouge de phénol. Après une incubation de 90 minutes à 37°C sans agitation, les mélanges sont centrifugés 5 minutes à 4 000 g pour éliminer les bactéries et dilués au 1/5 et au 1/10 en eau distillée stérile.
100 µl des échantillons réduits et dilués sont distribués dans des séries de 2 puits dans une plaque ELISA (maxicorp, Nunc.). 200 µl du réactif de Griess (mélange ex-temporané volume à volume des solutions de sulfamide à 1,5 g/100 ml de HCl 1,2 N (87,1 mM) - réactif A - et de naphtylènediamine à 0,15 g/100 ml d'eau stérile (5,78 mM) - réactif B -) sont ajoutés.
Cent autres µl d'échantillon servant de blanc de DO sont distribués et mélangés à 200 µl d'un mélange ex-temporané volume à volume d'eau distillée et du réactif colorimétrique A.
Après 30 minutes à température ambiante à l'obscurité, la densité optique (DO) des échantillons est lue à 540 nm au lecteur de plaque pour ELISA.
• Les contrôles du système d'induction iNOS sont composés de : • . Témoin cellules consistant en des macrophages ne recevant que du milieu de culture. • . Témoin d'induction consistant en des macrophages traités par 100 µl de lipopolysaccharide (LPS à 4 µg/ml, Difco) et par 100 µl d'interféron-γ recombinant (IFN-γ à 1 µU/ml, Boerhinger-Mannheim) afin d'activer la iNOS (Schmidt et al., Mol. Pharmacol., 1992, 41, 614-624). Les solutions mères de LPS et de IFN-γont été conservées respectivement à +4°C et à -20°C avant utilisation. • . Témoin d'inhibition spécifique pour prouver que les nitrites dosés proviennent de l'activation de la iNOS. Il consiste à incorporer à la culture un inhibiteur spécifique, la L-NMMA (N^G-monométhyl-L-arginine, Calbiochem) (Hibbs et al., Science, 1987, 235, 473-476) à des concentrations de raison 10 allant de 3 à 300 µM. Cette solution a été conservée sous parties aliquotes à -20°C avant utilisation. • Les contrôles de la réaction de Greiss sont composés de : • . Une solution de nitrate de sodium qui permet de contrôler l'activité nitrate-réductase des bactéries. • . Une gamme étalon de nitrite de sodium qui permet de doser les nitrites dans les échantillons. • Le blanc de DO de la gamme étalon contenant 100 µl d'eau distillée et 200 µl du mélange des réactifs A et B.

[2] = AVF1 1 x 10^-6 % (10 nM), IFNγ + LPS + L-NMMA (3 µM)
[3] = AVF1 1 x 10^-6 % (10 nM), IFNγ + LPS + L-NMMA (30 µM)
[4] = AVF1 1 x 10^-6 % (10 nM), IFNγ + LPS + L-NMMA (300 µM)
[5] = AVF1 1 x 10^-7 % (1 nM), IFNγ + LPS + L-NMMA (30 µM)
[6] = AVF1 1 x 10^-7 % (1 nM), IFNγ + LPS + L-NMMA (300 µM)
[7] = AVF1 1 x 10^-8 % (0,1 nM), IFNγ + LPS + L-NMMA (3 µM)
[8] = AVF1 1 x 10^-8 % (0,1 nM), IFNγ + LPS + L-NMMA (300 µM)

Structure (SMILES): CC(C)(C)c1cc(C(=O)OCCOCCOCCOCCOCCOCCOCCOCCO)cc(C(C)(C)C)c1O [AVF1, 3,5-di-t-butyl-4-hydroxybenzoate d'octaoxyéthylèneglycol]
- Remarques (toxicité sur cellules MT4) (cellules MT4; AVF1 dilué à 0,5%): Non toxique (échantillon inoculé à la dilution 1/4)
- Remarques (toxicité sur cellules MT4) (cellules MT4; AVF1 dilué à 1%): Non toxique (échantillon inoculé à la dilution 1/4)
- Remarques (toxicité sur cellules MT4) (cellules MT4; AVF1 dilué à 2%): Non toxique (échantillon inoculé à la dilution 1/4)
- Concentration moyenne en nitrites en µM sur 2 échantillons ([1]; AVF1 1 x 10^-6 % (10 nM), IFNγ + LPS): 20,9 µM
- Concentration moyenne en nitrites en µM sur 2 échantillons [1, 2]: 5,3 µM
- Pourcentage d'inhibition de la production de nitrite [1, 2]: 74%
- Concentration moyenne en nitrites en µM sur 2 échantillons [1, 3]: 6,3 µM
- Pourcentage d'inhibition de la production de nitrite [1, 3]: 70%
- Concentration moyenne en nitrites en µM sur 2 échantillons [1, 4]: 4,8 µM
- Pourcentage d'inhibition de la production de nitrite [1, 4]: 77%
- Concentration moyenne en nitrites en µM sur 2 échantillons ([1]; AVF1 1 x 10^-6 % (10 nM), cells: Milieu (no activator)): 5,0* µM
- Concentration moyenne en nitrites en µM sur 2 échantillons ([1]; AVF1 1 x 10^-7 % (1 nM), IFNγ + LPS): 19,5 µM
- Concentration moyenne en nitrites en µM sur 2 échantillons ([1]; AVF1 1 x 10^-7 % (1 nM), IFNγ + LPS + L-NMMA (3 µM)): 5,1 µM
- Concentration moyenne en nitrites en µM sur 2 échantillons [1, 5]: 4,9 µM
- Pourcentage d'inhibition de la production de nitrite [1, 5]: 76%
- Concentration moyenne en nitrites en µM sur 2 échantillons [1, 6]: 5,8 µM
- Pourcentage d'inhibition de la production de nitrite [1, 6]: 72%
- Concentration moyenne en nitrites en µM sur 2 échantillons ([1]; AVF1 1 x 10^-7 % (1 nM), cells: Milieu (no activator)): 4,8* µM
- Concentration moyenne en nitrites en µM sur 2 échantillons ([1]; AVF1 1 x 10^-8 % (0,1 nM), IFNγ + LPS): 21,6 µM
- Concentration moyenne en nitrites en µM sur 2 échantillons [1, 7]: 5,0 µM
- Pourcentage d'inhibition de la production de nitrite [1, 7]: 76%
- Concentration moyenne en nitrites en µM sur 2 échantillons ([1]; AVF1 1 x 10^-8 % (0,1 nM), IFNγ + LPS + L-NMMA (30 µM)): 5,2 µM
- Concentration moyenne en nitrites en µM sur 2 échantillons [1, 8]: 5,5 µM
- Pourcentage d'inhibition de la production de nitrite [1, 8]: 74%
- Concentration moyenne en nitrites en µM sur 2 échantillons ([1]; AVF1 1 x 10^-8 % (0,1 nM), cells: Milieu (no activator)): 5,6* µM
- induction de monoxyde d'azote (NO) dans les macrophages ([1]; AVF1 from 10^-6 % downwards, non-activated macrophages, nitrites in supernatants): n'induit pas de monoxyde d'azote (NO)
- inhibition at 0.01 µM ([1]; Mus musculus, RAW264.7, AVF1 1 x 10^-6 % (10 nM), IFNγ + LPS, read-out: Pourcentage d'inhibition de la production de nitrite): 0%
- inhibition at 0.001 µM ([1]; Mus musculus, RAW264.7, AVF1 1 x 10^-7 % (1 nM), IFNγ + LPS, read-out: Pourcentage d'inhibition de la production de nitrite): 6%
- action sur le niveau de production de NO ([1]; macrophages activated by LPS + IFN-γ): n'a aucune action sur le niveau de production
